Assay results as given in ChEMBL document CHEMBL4184182, “Studies on interactions of carbazole derivatives with DNA, cell image, and cytotoxicity” (Bioorg Med Chem, 2018).
Each block holds one compound with its values, some of them ahead of it. The source made the active and inactive calls. The calls are words filed in the database; no cut-off is given here.

Columns and labels:
Calf thymus DNA = test: Binding affinity to calf thymus DNA assessed as red shift at 10 uM after 5 mins by UV-Visible absorbance titration method; type: nucleic-acid assay; settings: Bos taurus
Quadruplex DNA [1] = test: Binding affinity to c-Kit G-quadruplex DNA (unknown origin) assessed as absorption maximum at 5 uM after 5 mins by fluorescence titration method (reference value: 453 nanometer); type: nucleic-acid assay
Quadruplex DNA [2] = test: Binding affinity to c-Kit G-quadruplex DNA (unknown origin) assessed as compound fluorescence life time at 5 uM after 5 mins by fluorescence titration method (reference value: 0.192 nanoseconds); type: nucleic-acid assay
Quadruplex DNA [3] = test: Binding affinity to human telomeric G-quadruplex DNA assessed as red shift at 10 uM after 5 mins in presence of sodium ion by UV-Visible absorbance titration method; type: nucleic-acid assay
Quadruplex DNA [4] = test: Binding affinity to Bcl2 G-quadruplex DNA (unknown origin) assessed as hyperchromicity at 10 uM after 5 mins by UV-Visible absorbance titration method; type: nucleic-acid assay
dsDNA [5] = test: Binding affinity to 26-mer duplex DNA (unknown origin) assessed as absorption maximum at 5 uM after 5 mins by fluorescence titration method (reference value: 453 nanometer); type: nucleic-acid assay
[6] = Drug uptake in human HepG2 cell nucleus at 3 uM after 30 mins by H33258.staining based confocal microscopic method; type: ADME, subcellular; settings: hepg2, 0.5 h
dsDNA [7] = test: Binding affinity to 26-mer duplex DNA (unknown origin) assessed as compound fluorescence life time at 5 uM after 5 mins by fluorescence titration method (reference value: 0.192 nanoseconds); type: nucleic-acid assay
HepG2 [8] = test: Induction of morphological changes in human HepG2 cells assessed as debris formation at 5 uM after 24 hrs; type: functional, cell-based
Quadruplex DNA [9] = test: Binding affinity to Bcl2 G-quadruplex DNA (unknown origin) assessed as red shift at 10 uM after 5 mins by UV-Visible absorbance titration method; type: nucleic-acid assay
Quadruplex DNA [10] = test: Binding affinity to Bcl2 G-quadruplex DNA (unknown origin) assessed as compound fluorescence life time at 5 uM after 5 mins by fluorescence titration method (reference value: 0.192 nanoseconds); type: nucleic-acid assay
Quadruplex DNA [11] = test: Binding affinity to c-Myc G-quadruplex DNA (unknown origin) assessed as absorption maximum at 5 uM after 5 mins by fluorescence titration method (reference value: 453 nanometer); type: nucleic-acid assay
Quadruplex DNA [12] = test: Binding affinity to human telomeric G-quadruplex DNA assessed as hyperchromicity at 10 uM after 5 mins in presence of potassium ion by UV-Visible absorbance titration method; type: nucleic-acid assay
Quadruplex DNA [13] = test: Binding affinity to c-Myc G-quadruplex DNA (unknown origin) assessed as emission maximum at 5 uM after 5 mins by fluorescence titration method (reference value: 584 nanometer); type: nucleic-acid assay
Quadruplex DNA [14] = test: Binding affinity to c-Myc G-quadruplex DNA (unknown origin) assessed as red shift at 10 uM after 5 mins by UV-Visible absorbance titration method; type: nucleic-acid assay
Quadruplex DNA [15] = test: Binding affinity to Bcl2 G-quadruplex DNA (unknown origin) assessed as enhanced fluorescence time at 5 uM after 5 mins by fluorescence titration assay relative to control; type: nucleic-acid assay
HepG2 [16] = test: Induction of morphological changes in human HepG2 cells assessed as debris formation at 10 uM after 24 hrs; type: functional, cell-based
Quadruplex DNA [17] = test: Binding affinity to c-Myc G-quadruplex DNA (unknown origin) assessed as red shift at 15 uM after 5 mins by UV-Visible absorbance titration method; type: nucleic-acid assay
Quadruplex DNA [18] = test: Binding affinity to c-Kit G-quadruplex DNA (unknown origin) assessed as enhanced fluorescence ratio at 5 uM after 5 mins by fluorescence titration assay relative to control; type: nucleic-acid assay
Quadruplex DNA [19] = test: Binding affinity to human telomeric G-quadruplex DNA assessed as compound fluorescence life time at 5 uM after 5 mins in presence of potassium ion by fluorescence titration method (reference value: 3.626 nanoseconds); type: nucleic-acid assay
[20] = Drug uptake in RNase-A treated human HepG2 cell nucleus at 10 uM after 2.5 hrs by confocal microscopic method; type: ADME, subcellular; settings: hepg2, 2.5 h
Quadruplex DNA [21] = test: Binding affinity to Bcl2 G-quadruplex DNA (unknown origin) assessed as enhanced fluorescence ratio at 5 uM after 5 mins by fluorescence titration assay relative to control; type: nucleic-acid assay
Quadruplex DNA [22] = test: Binding affinity to human telomeric G-quadruplex DNA assessed as absorption maximum at 5 uM after 5 mins in presence of potassium ion by fluorescence titration method (reference value: 405 nanometer); type: nucleic-acid assay
Quadruplex DNA [23] = test: Binding affinity to human telomeric G-quadruplex DNA assessed as compound fluorescence life time at 5 uM after 5 mins in presence of sodium ion by fluorescence titration method (reference value: 3.626 nanoseconds); type: nucleic-acid assay
Quadruplex DNA [24] = test: Binding affinity to human telomeric G-quadruplex DNA assessed as red shift at 15 uM after 5 mins in presence of sodium ion by UV-Visible absorbance titration method; type: nucleic-acid assay
Quadruplex DNA [25] = test: Binding affinity to human telomeric G-quadruplex DNA assessed as hyperchromicity at 15 uM after 5 mins in presence of sodium ion by UV-Visible absorbance titration method; type: nucleic-acid assay
Quadruplex DNA [26] = test: Binding affinity to human telomeric G-quadruplex DNA assessed as red shift at 15 uM after 5 mins in presence of potassium ion by UV-Visible absorbance titration method; type: nucleic-acid assay
Quadruplex DNA [27] = test: Binding affinity to c-Kit G-quadruplex DNA (unknown origin) assessed as red shift at 15 uM after 5 mins by UV-Visible absorbance titration method; type: nucleic-acid assay
dsDNA [28] = test: Binding affinity to 26-mer duplex DNA (unknown origin) assessed as enhanced fluorescence ratio at 5 uM after 5 mins in presence of sodium ion by fluorescence titration assay relative to control; type: nucleic-acid assay
Quadruplex DNA [29] = test: Binding affinity to human telomeric G-quadruplex DNA assessed as hyperchromicity at 15 uM after 5 mins in presence of potassium ion by UV-Visible absorbance titration method; type: nucleic-acid assay
Quadruplex DNA [30] = test: Binding affinity to human telomeric G-quadruplex DNA assessed as enhanced fluorescence time at 5 uM after 5 mins in presence of potassium ion by fluorescence titration assay relative to control; type: nucleic-acid assay
Quadruplex DNA [31] = test: Binding affinity to c-Myc G-quadruplex DNA (unknown origin) assessed as hyperchromicity at 15 uM after 5 mins by UV-Visible absorbance titration method; type: nucleic-acid assay
Quadruplex DNA [32] = test: Binding affinity to c-Kit G-quadruplex DNA (unknown origin) assessed as enhanced fluorescence time at 5 uM after 5 mins by fluorescence titration assay relative to control; type: nucleic-acid assay
dsDNA [33] = test: Binding affinity to 26-mer duplex DNA (unknown origin) assessed as hyperchromicity at 15 uM after 5 mins by UV-Visible absorbance titration method; type: nucleic-acid assay
HepG2 [34] = test: Induction of morphological changes in human HepG2 cells assessed as cellular clumping at 10 uM after 24 hrs; type: functional, cell-based
Quadruplex DNA [35] = test: Binding affinity to human telomeric G-quadruplex DNA assessed as enhanced fluorescence time at 5 uM after 5 mins in presence of sodium ion by fluorescence titration assay relative to control; type: nucleic-acid assay
Quadruplex DNA [36] = test: Binding affinity to c-Myc G-quadruplex DNA (unknown origin) assessed as absorption maximum at 5 uM after 5 mins by fluorescence titration method (reference value: 405 nanometer); type: nucleic-acid assay
Quadruplex DNA [37] = test: Binding affinity to c-Kit G-quadruplex DNA (unknown origin) assessed as emission maximum at 5 uM after 5 mins by fluorescence titration method (reference value: 559 nanometer); type: nucleic-acid assay

Activity (Calf thymus DNA): 24 nm
Activity (Quadruplex DNA [1]): 493 nm
Time (Quadruplex DNA [2]): 1.51 nanoseconds
Activity (Quadruplex DNA [3]): 24 nm
Activity (Quadruplex DNA [4]): 52.6%
Activity (dsDNA [5]): 470 nm
Drug uptake [6]: Active
Time (dsDNA [7]): 2.69 nanoseconds
Activity (Quadruplex DNA [9]): 47 nm
Time (Quadruplex DNA [10]): 2.17 nanoseconds
Activity (Quadruplex DNA [11]): 506 nm
Activity (Quadruplex DNA [12]): 41.1%
Activity (Quadruplex DNA [13]): 581 nm
Activity (Quadruplex DNA [14]): 53 nm
Structure (SMILES): CCn1c2ccccc2c2cc(/C=C/c3sc4ccccc4[n+]3CC)ccc21.[I-]
Activity (HepG2 [8]): Active

fold change (FC) (Quadruplex DNA [15]): 11.2 to 20.6
Activity (Quadruplex DNA [17]): 25 nm
Ratio (Quadruplex DNA [18]): > 6
Time (Quadruplex DNA [19]): 6.35 nanoseconds
Drug uptake [20]: Active
Ratio (Quadruplex DNA [21]): > 6
Activity (Quadruplex DNA [22]): 428 nm
Time (Quadruplex DNA [23]): 7.25 nanoseconds
Activity (Quadruplex DNA [24]): 17 nm
Activity (Quadruplex DNA [25]): 37.9%
Activity (Quadruplex DNA [26]): 23 nm
Activity (Quadruplex DNA [27]): 27 nm
Ratio (dsDNA [28]): > 6
Activity (Quadruplex DNA [29]): 41.2%
fold change (FC) (Quadruplex DNA [30]): 11.2 to 20.6
Activity (Quadruplex DNA [31]): 41.7%
fold change (FC) (Quadruplex DNA [32]): 11.2 to 20.6
Activity (dsDNA [33]): 27.7%
fold change (FC) (Quadruplex DNA [35]): 11.2 to 20.6
Activity (Quadruplex DNA [36]): 430 nm
Activity (Quadruplex DNA [37]): 550 nm
Structure (SMILES): CCn1c2ccccc2c2cc(/C=C(\C#N)c3ccc[n+](C)c3)ccc21.[I-]
Activity (HepG2 [16]): Active
Activity (HepG2 [34]): Active
